As a reminder, the IC50 is the concentration needed to halve the response being measured.

Where a name gives a salt, the structure may show the parent alone.

Here are results for 26 compounds from US9643933B2, “Compounds useful as antibiotic tolerance inhibitors” (priority 2013, dated 2017).

The subject of assay [1] is Pyocyanin. Description: Pyocyanin Inhibition Assay. The class given is cell-based, P. aeruginosa, strain PA14. Conditions: Pseudomonas aeruginosa, PA14, 24 h, read-out: Pyocyanin Inhibition No. IC50 (μM). How it is done: Test compounds are dissolved in DMSO at 10 mM and stored at −20° C. until needed. Seven test concentrations from 0.0032 micromolar to 31.6 micromolar are used for each compound.
P. aeruginosa, strain PA14, is inoculated into 5 mL of LB broth in a 15-mL sterile glass culture tube and incubated overnight at 37° C. under shaking (˜240 rpm). The overnight culture is then diluted in LB Broth to give an OD600=0.04 (T0 culture). Colony Forming Units (CFU)/mL of the overnight culture and T0 culture are determined by a series of 1:10 serial dilutions in sterile saline. 4×20 μL of each dilution is seeded on LB agar plates and incubated at 35±2° C. for 20 hours. CFU/mL is determined from the dilution that gives 2 to 50 colonies/20 μL.
For concentration response curve (CRC) experiments, internal standard, 2-((5-nitro-1H-indol-2-yl)thio)-N-(4-phenoxyphenyl)acetamide, a compound previously identified as an MvfR inhibitor (see Example 1 of US 2014-0066454 (WO 2012/116010)), and test compounds are serially diluted in DMSO to 200 times each final concentration (0.5% DMSO fmal), and 1 μL/well is dispensed in duplicate into 2 mL wells of a 96-well deep well plate. 200 μL/well of T0 culture are added to each internal standard/test compound well. Wells containing only T0 culture (200 200 μL/well) are used to determine pyocyanin control level and wells containing only LB broth (blank wells) are also included in the plate.
The plate is sealed and incubated at 37° C. under shaking (˜700 rpm) using a microtiter shaker for 24 hours. At the end of the incubation period, the plate is centrifuged at 4,000 g for 40 minutes at room temperature, 100 μL/well of the supernatant is transferred to a 96-microtiter PS flat-bottom plate, and absorbance at 690 nm is determined using SPECTROstar® Nano microplate reader. Pyocyanin concentration (M) is determined using the equation C=A690/(ε×d), where ε is the Pyocyanin extinction coefficient, at A690 nm ε is 4,310 M^−1 cm^−1 and d is the experimentally derived pathlength. The level of pyocyanin in the presence of test compound is expressed as percentage of inhibition with respect to the control. Curve fitting and IC50 determination were carried out using a four-parameter logistic model using GraphPad Prism v.5.

In assay [2] the test system is PQS. Description: PQS Inhibition Assay (24 Hour Incubation). The class given is cell-based, P. aeruginosa PA14 wild-type strain. The settings on record: Pseudomonas aeruginosa, PA14, 24 h, read-out: PQS (24 hr) IC50 (μM). How it is done:
Test compounds are dissolved in DMSO at 10 mM and stored at −20° C. until needed. Seven test concentrations from 0.0032 micromolar to 31.6 micromolar are used for each compound. P. aeruginosa PA14 wild-type strain is inoculated into 5 mL LB broth in a 15-mL sterile glass culture tube and incubated overnight at 37° C. under shaking (˜240 rpm). The overnight culture is then diluted in LB Broth to give an OD600=0.04 (T0 culture). Colony Forming Units (CFU)/mL of the overnight culture and T0 culture are determined by a series of 1:10 serial dilutions in sterile saline. 4×20 μL of each dilution is seeded on LB agar plates and incubated at 35±2° C. for 20 hours. CFU/mL is determined from the dilution that gives 2 to 50 colonies/20 μL.
For concentration response curve (CRC) experiments, internal standard (2-((5-nitro-1H-indol-2-yl)thio)-N-(4-phenoxyphenyl)acetamide)) and test compounds are serially diluted in DMSO to give 200 times of each final concentration (0.5% DMSO final), and 1 μL/well is dispensed in duplicate into 2-mL wells of a 96 well deep well plate. 200 μL/well of T0 culture is added to each internal standard/test compound well used to determine PQS control level. Wells containing only LB broth (blank wells) are also included in the plate.
The plate is sealed and incubated at 37° C. for 24 hours under shaking (˜700 rpm) using a microtiter shaker. At the end of the incubation period, 150 μL/well of the deep well plate culture are transferred in a new non-sterile plate, and 150 μL/well of methanol containing tetra-deuterated PQS (D4-PQS) and 2% acetic acid are added to each well. The plate is sealed, shaken at high speed for 5 minutes and centrifuged at 4,000 g for 40 minutes at room temperature. 100 μL/well of the supernatant is then transferred to glass vials (vials crimp 0.2 mL) and kept at 4° C. until LC-MS/MS analysis.
PQSs quantification is carried out by analyzing samples in discrete batches together with spiked standards and blank samples.
Calibration curves are constructed from PQS standards, and respective deuterated PQS is used as an Internal Standards (IS) to calculate the concentration of analytes in the sample and improve the precision of the assay. The back-calculated concentrations of the calibration standards from the calibration curve shall be within ±20% of the nominal values, the range of the analytical method is determined, and the lower and upper limit of quantification specified.
Liquid chromatography separations are performed using an Agilent HP1100 system (Agilent Technologies) coupled with a CTC PAL Autosampler (CTC Analytics AG). Chromatographic retention is obtained using a monolithic column (Chromolith® RP-18, 50×4.6 mm). The solvent system consists of water containing 0.1% (v/v) formic acid (A) and acetonitrile containing 0.1% (v/v) formic acid (B). The gradient elution profile is chosen as follows: 0 min: 70% A (1500 μL/min), 0.3 min: 70% A (1500 μL/min), 1.3 min: 5% A (2500 μL/min), 1.6 min: 5% A (2500 μL/min).
The MS/MS analysis is performed with an API4000 series mass spectrometer (AB Sciex™) operating in Multiple Reaction Monitoring (MRM) mode and equipped with a TIS ion source. The specific ions monitored are PQS (m/z 260→m/z 175) and D4-PQS (m/z 264→m/z 179). The computer systems used in this study to acquire and quantify data may be an Analyst™ v1.5.
PQS in the presence of different concentrations of test compound are expressed as percentage of inhibition of the basal level in control samples. Curve fitting and IC50 estimations are carried out using a four parameter logistic model using GraphPad Prism v.5 program.

Take `Cn1c(SCC(=O)Nc2ccc(Oc3ccccc3)cc2)nc2cc([N+](=O)[O-])ccc21` [Compound 23]: the concentration for half-maximal inhibition (IC50) in assay [1] is 1 to 10 µM; in assay [2] it was > 10 µM.
The matching figures for `N#Cc1ccc(NC(=O)CNc2nc3cc(Cl)ccc3s2)cc1` [Compound 72, 2-(5-Chlorobenzo[d]thiazol-2-ylamino)-N-(4-cyanophenyl)acetamide]: > 10 µM and > 10 µM.
For the compound `O=C(CNc1nc2ccc(Cl)cc2s1)Nc1ccc(Oc2cccnc2)cc1` [Compound 73, 2-((6-chlorobenzo[d]thiazol-2-yl)amino)-N-(4-(pyridin-3-yloxy)phenyl)acetamide], the half-maximal inhibitory concentration (IC50) in assay [1] and in assay [2] was > 10 µM throughout.
As for `N#Cc1ccc(NC(=O)CNc2nc3cc(Cl)ccc3o2)cc1` [Compound 75, 2-((5-chlorobenzo[d]oxazol-2-yl)amino)-N-(4-cyanophenyl)acetamide], the IC50 in assay [1] and in assay [2] was > 10 µM in each case.
As for `O=C(CSc1nc2cc(Cl)ccc2[nH]1)Nc1ccc(Oc2ccncc2)cc1` [Compound 76, 2-((5-chloro-1H-benzo[d]imidazol-2-yl)thio)-N-(4-(pyridin-4-yloxy)phenyl)acetamide], the IC50 in assay [1] was < 0.1 µM; in assay [2] it was < 1 µM.
Take `O=C(CSc1nc2cc(Cl)ccc2[nH]1)Nc1ccc(Oc2cnccn2)cc1` [Compound 78, 2-((5-chloro-1H-benzo[d]imidazol-2-yl)thio)-N-(4-(pyrazin-2-yloxy)phenyl)acetamide]: the values for the IC50 in assay [1] and in assay [2] were < 0.1 µM and < 1 µM, respectively.
As to `Cc1ccc(Oc2ccc(NC(=O)CSc3nc4cc(Cl)ccc4[nH]3)cc2)cn1` [Compound 80, 2-((5-chloro-1H-benzo[d]imidazol-2-yl)thio)-N-(4-((6-methylpyridin-3-yl)oxy)phenyl)acetamide], the IC50 in assay [1] was < 0.1 µM; in assay [2] it was < 1 µM.
The matching figures for `Cc1cncc(Oc2ccc(NC(=O)CSc3nc4cc(Cl)ccc4[nH]3)cc2)c1` [Compound 81, 2-(5-Chloro-1H-benzo[d]imidazol-2-ylthio)-N-(4-(5-methylpyridin-3-yloxy)phenyl)acetamide]: < 0.1 µM and < 1 µM.
For `O=C(NCCSc1nc2cc(Cl)ccc2[nH]1)c1ccc(Oc2cccnc2)cc1` [Compound 87, N-(2-((5-chloro-1H-benzo[d]imidazol-2-yl)thio)ethyl)-4-(pyridin-3-yloxy)benzamide], the IC50 in assay [1] and in assay [2] was > 10 µM throughout.
For `N#Cc1ccc(C(=O)NCCSc2nc3cc(Cl)ccc3[nH]2)cc1` [Compound 88, N-(2-((5-chloro-1H-benzo[d]imidazol-2-yl)thio)ethyl)-4-cyanobenzamide], the IC50 in assay [1] and in assay [2] was > 10 µM each time.
Consider `N#Cc1ccc(NC(=O)CSc2cc3cc(Cl)ccc3[nH]2)cc1` [Compound 90, 2-((5-Chloro-1H-indol-2-yl)thio)-N-(4-cyanophenyl)acetamide], for which the figures for the IC50 in assay [1] and in assay [2] were 1 to 10 µM and > 10 µM, respectively.
`O=S(=O)(CSc1nc2cc(Cl)ccc2[nH]1)Nc1ccc(Oc2cccnc2)cc1` [Compound 91, 1-((5-chloro-1H-benzo[d]imidazol-2-yl)thio)-N-(4-(pyridin-3-yloxy)phenyl)methanesulfonamide]: the half-maximal inhibitory concentration (IC50) in assay [1] and in assay [2] was > 10 µM throughout.
`O=C(CCc1nc2ccc(Cl)cc2o1)Nc1ccc(Oc2cccnc2)cc1` [Compound 92, 3-(6-chlorobenzo[d]oxazol-2-yl)-N-(4-(pyridin-3-yloxy)phenyl)propanamide]: the IC50 in assay [1] and in assay [2] was > 10 µM in each case.
As to `O=C(CSc1nc2cc(OC(F)F)ccc2[nH]1)Nc1ccc(Cl)cc1` [Compound 95], the IC50 was 1 to 10 µM in assay [1] and > 10 µM in assay [2].
On the same counts, the results for `N#Cc1ccc(NC(=O)CSc2nc3cc(C(=O)O)ccc3[nH]2)cc1` [Compound 106] are > 10 µM and > 10 µM.
On to `COC(=O)c1ccc2[nH]c(SCC(=O)Nc3ccc(C#N)cc3)nc2c1` [Compound 112], for which the half-inhibitory concentration (IC50) in assay [1] and in assay [2] was > 10 µM throughout.
Regarding `N#Cc1ccc(NC(=O)CSc2nc3ccc(-c4ncccn4)cc3[nH]2)cc1` [Compound 113], the half-inhibitory concentration (IC50) in assay [1] and in assay [2] was > 10 µM throughout.
`N#Cc1ccc(NC(=O)CSc2nc3ccc(-n4cccn4)cc3[nH]2)cc1` [Compound 117]: the IC50 in assay [1] is 1 to 10 µM; in assay [2], > 10 µM.
As to `O=C(CCc1nc2ccc([N+](=O)[O-])cc2[nH]1)Nc1ccc(Cl)cc1` [Compound 134, N-(4-chlorophenyl)-3-(6-nitro-1H-benzo[d]imidazol-2-yl)propanamide hydrochloride], the IC50 in assay [1] is 1 to 10 µM; in assay [2] it was 1 to 5 µM.
For the compound `CN(C)C(=O)Oc1ccc2[nH]c(SCC(=O)Nc3ccc(C#N)cc3)nc2c1` [Compound 135], the IC50 in assay [1] and in assay [2] was > 10 µM throughout.
Regarding `CN(C)C(=O)Oc1ccc2[nH]c(SCC(=O)Nc3ccc(Cl)cc3)nc2c1` [Compound 136], the IC50 in assay [1] and in assay [2] was > 10 µM throughout.
Consider `N#Cc1cccc(NC(=O)CSc2nc3cc(Cl)ccc3[nH]2)c1` [Compound 138], for which the IC50 in assay [1] and in assay [2] was > 10 µM in each case.
As for `O=C(CSc1nc2cc(Cl)ccc2[nH]1)Nc1ccc2c(c1)OCO2` [Compound 139], the IC50 in assay [1] is 1 to 10 µM; in assay [2], > 10 µM.
On the same counts, the results for `COc1ccc(NC(=O)CSc2nc3c(Cl)cc(Cl)cc3[nH]2)cc1` [Compound 141] are 1 to 10 µM and > 10 µM.
As for `COc1ccc(NC(=O)CSc2nc3ccc(Cl)cc3[nH]2)cc1Cl` [Compound 143], the figures for the IC50 in assay [1] and in assay [2] were 1 to 10 µM and 5 to 10 µM, respectively.
The matching figures for `O=C(CSc1nc2ccc(Cl)cc2[nH]1)Nc1ccc(F)cc1F` [Compound 144]: 1 to 10 µM and > 10 µM.
